Experimental data as given in the NIST ThermoML archive (doi:10.1016/j.fluid.2018.11.012).
± gives the expanded uncertainty stated by the source.

Assays:
[1] = 298.15 K; 101.33 kPa; Liquid; Vibrating tube method
[2] = refractive index (Na D-line) (dimensionless); settings: 298.15 K; 101.33 kPa; Liquid; Standard Abbe refractometry

Row | SMILES | mass density [1] | refractive index [2]
1 | CCCCCCCCCCCCCC [tetradecane] | 759.38 ± 0.26 kg/m3 | 1.4269 ± 0.0008
2 | CC1CCC(=O)O1 (centres undefined) [γ-valerolactone] | 1049.25 ± 0.3 kg/m3 | 1.4312 ± 0.0008
